What was measured:
[1] = Six-week double-blind clinical evaluation for the treatment of red and brown pigmented skin; assay type: in vivo, human; details: 0.5% in vehicle, twice a day to facial area for 6 weeks; expert grading of Canfield VISIA-CR RBX images; women ages 40-70
Method: A six-week double-blind clinical evaluation was performed, comparing a control vehicle to idebenone dipalmitoyl glycerate for the treatment of red and brown pigmented skin. Approximately 36 women, ages 40-70 with moderate hyperpigmentation and reddening of the skin were selected to participate in the study. Subjects were randomly assigned to one of three groups. Group I received a product with no idebenone active ingredient (vehicle), Group II received the same vehicle with 0.5% Idebenone (Hydroxydecyl Ubiquinone) added, and Group III received the same vehicle with 0.5% of Idebenone Dipalmitoyl Glycerate added. Subjects were instructed to apply the product twice a day (morning and evening) to the facial area for 6 weeks. Canfield VISIA-CR RBX images were made at baseline and after 6 weeks use and analyzed. Digital and UV photographs were also taken, standardizing distance and positioning of the subjects, pre and post product application.

[2] = Maximization Test (repeat insult patch test) for contact-sensitizing potential; assay type: in vivo, human; details: Vehicle+1% test substance, occlusive patch, 5 induction exposures with SLS pre-treatment, single challenge; graded 48 or 72 hours after application of challenge patches; healthy adult volunteers
Method: A study was performed to evaluate the contact-sensitizing potential of a topical Facial Cream containing idebenone dipalmitoyl glycerate (Vehicle+1% idebenone dipalmitoyl glycerate) using the Maximization Test. The test was a repeat insult patch test wherein the test material was applied under an occlusive dressing to the upper outer arm, volar forearm or back repeatedly to the same site for five 48-hour induction periods, followed 10-14 days later by a single challenge to a naive skin site. The test sample was coded Cream A and tested as supplied viz. neat. All test materials were stored under ambient conditions in an inaccessible location under the supervision of the investigator.
The test subjects were all healthy, adult volunteers over the age of 18 years. […]

| Compound | subjects responded with a decrease in brown pigmentation [1] [%] | subjects responded with less redness [1] [%] | subjects with contact allergy / positive reaction (recordable level of skin sensitization) after challenge [2] |
| --- | --- | --- | --- |
| 3-oxo-3-(9-(2,4,5-trimethyl-3,6-dioxocyclohexa-1,4-dienyl)monyloxy)propane-1,2-diyl dipalmitate [idebenone dipalmitoyl glycerate] | 75 | 58 | – |
| COC1=C(OC)C(=O)C(CCCCCCCCCCOP(=O)(O)O)=C(C)C1=O [idebenone phosphate ester] | – | – | Four subjects exhibited positive reactions |
| COC1=C(OC)C(=O)C(CCCCCCCCCCO)=C(C)C1=O [idebenone, 6-(10-hydroxydecyl)-2,3-dimethoxy-5-methyl-1,4-benzoquinone] | 67 | 58 | – |

— patent US9290436B2, “Compositions containing carboxylic acid-substituted derivatives” (Elizabeth Arden, Inc., priority 2008, dated 2016)
